Reference: paper PMC3656107, “Polymorphisms in the F8 Gene and MHC-II Variants as Risk Factors for the Development of Inhibitory Anti-Factor VIII Antibodies during the Treatment of Hemophilia A: A Computational Assessment” (PLoS Computational Biology, 2013)

Experiments:
MHC-II DRB1*15:01 [1] = biological target: T1, MHC-II DRB1*15:01 (Homo sapiens, UniProt P01903+P01911); assay: Cell-free REVEAL class II stability assay; details: half-life of peptide-MHC-II complex (h, capped at 120) x Binding Score / 100, conformational ELISA
T1 construct: purchased ProImmune
Procedure: (§1) We measured the half-life of each peptide-MHC-II complex using REVEAL peptide-MHC affinity assays developed by ProImmune Ltd. (Oxford, UK). On-rates of peptides were measured over a 96-hr period at 10°C. A unique positive control peptide was used for each MHC-II allele. Samples of assembling peptide-MHC complexes were taken at defined time points and snap-frozen in liquid nitrogen prior to analysis. Assembly of peptide-MHC complexes was detected using a conformational ELISA involving an anti-HLA antibody. On-rates were calculated by fitting data to a one-phase association curve: [drawing 1] To determine the off-rates of the peptides, samples of dissociating complexes were taken at defined time points and frozen in liquid nitrogen prior to analysis. Percent denaturation of peptide-MHC complexes was also detected using a conformational ELISA. Off-rates were calculated by fitting data to a one-phase dissociation curve: [drawing 2] On- and off-rate half-life values (t1/2) were calculated from the rate constant (k) using the following equation: [drawing 3] To obtain a normalized stability score, the half-life values were multiplied by the Binding Score (see above) and divided by 100.

MHC-II DRB1*11:01 [2] = biological target: T2, MHC-II DRB1*11:01 (Homo sapiens, UniProt P01903+P01911, A100R/A169T/A87E/I96F/K41T/L162R/M171V/P40S/Q125H/Q178H/Q39Y/Q99D/R42S/S66Y/T262R/V115G/W38E); assay: Cell-free REVEAL class II stability assay; details: half-life of peptide-MHC-II complex (h, capped at 120) x Binding Score / 100, conformational ELISA
T2 sequence (P01903 26-254 limits assumed, other chains not shown): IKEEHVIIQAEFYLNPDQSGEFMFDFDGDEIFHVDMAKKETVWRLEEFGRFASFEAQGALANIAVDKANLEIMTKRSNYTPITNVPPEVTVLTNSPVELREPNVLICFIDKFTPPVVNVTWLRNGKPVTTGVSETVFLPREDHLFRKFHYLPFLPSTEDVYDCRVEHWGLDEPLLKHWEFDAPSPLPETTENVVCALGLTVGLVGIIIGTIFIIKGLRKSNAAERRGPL
Procedure: as §1

MHC-II DRB1*04:01 [3] = biological target: T3, MHC-II DRB1*04:01 (Homo sapiens, UniProt P01903+P01911, A100K/A169T/F76Y/I96L/K127E/L162R/M171V/N62H/P40V/Q125Y/R42H/S133A/S149N/S66Y/V115G/V209L/W38E); assay: Cell-free REVEAL class II stability assay; details: half-life of peptide-MHC-II complex (h, capped at 120) x Binding Score / 100, conformational ELISA
Procedure: as §1

MHC-II DRB1*15:03 [4] = biological target: T4, MHC-II DRB1*15:03 (Homo sapiens, UniProt P01903+P01911, Y59H); assay: Cell-free REVEAL class II stability assay; details: half-life of peptide-MHC-II complex (h, capped at 120) x Binding Score / 100, conformational ELISA
T4 construct: purchased ProImmune
T4 sequence (P01903 26-254, other chains not shown): as the sequence (P01903 26-254 limits assumed, other chains not shown) above
Procedure: as §1

MHC-II DRB1*03:01 [5] = biological target: T5, MHC-II DRB1*03:01 (Homo sapiens, UniProt P01903+P01911, A100K/A102G/A103R/A169T/F55Y/I96L/K41T/L162R/M171V/P40S/Q125H/Q178H/Q39Y/R42S/S66N/T106N/T262R/W38E/Y61H); assay: Cell-free REVEAL class II stability assay; details: half-life of peptide-MHC-II complex (h, capped at 120) x Binding Score / 100, conformational ELISA
T5 sequence (P01903 26-254 limits assumed, other chains not shown): as above
Procedure: as §1

MHC-II DRB1*07:01 [6] = biological target: T6, MHC-II DRB1*07:01 (Homo sapiens, UniProt P01903+P01911, A100R/A102G/A103Q/D57E/D86V/E43K/F76Y/K127E/L162R/M171V/P40G/Q125H/Q99D/R33Q/R42Y/R54Q/S133A/S66F/T210M/V115G/Y107V/Y59L/Y89S); assay: Cell-free REVEAL class II stability assay; details: half-life of peptide-MHC-II complex (h, capped at 120) x Binding Score / 100, conformational ELISA
Procedure: as §1

MHC-II DRB1*15:01 [7] = biological target: T1, MHC-II DRB1*15:01; assay: Cell-free REVEAL class II binding assay; details: signal of test peptide as percentage of allele-specific positive control peptide, fluorescence, conformation-specific monoclonal antibody
From the text: (§2) We used a proprietary high throughput, REVEAL binding assay (ProImmune, www.proimmune.com) to estimate the binding of individual test peptides to the following MHC-II variants: DRB1*03:01, DRB1*04:01, DRB1*07:01, DRB1*11:01, DRB1*15:01 and DRB1*15:03 [28]. Detection of a peptide binding to each MHC-II protein is based on the presence or absence of the native conformation of the MHC-peptide complex. The peptide-MHC-II complex is detected by an increase in a fluorescence signal due to the binding of a specific monoclonal antibody. Each test-peptide is given a score relative to a positive control peptide, which is a known T-cell epitope for that MHC-II molecule. The score is reported quantitatively as a percentage of the signal generated by the test peptide compared with the positive control peptide. Assay performance is evaluated by including in each set of measurements an intermediate control peptide which is known to bind the MHC-II molecule but with a lower affinity than the positive control peptide. Note that the positive control peptide used to determine the binding score is different from the positive control peptides depicted in the figures, which are known T-cell epitopes identified in the FVIII molecule.

MHC-II DRB1*11:01 [8] = biological target: T2, MHC-II DRB1*11:01; assay: Cell-free REVEAL class II binding assay; details: signal of test peptide as percentage of allele-specific positive control peptide, fluorescence, conformation-specific monoclonal antibody
From the text: as §2

MHC-II DRB1*04:01 [9] = biological target: T3, MHC-II DRB1*04:01; assay: Cell-free REVEAL class II binding assay; details: signal of test peptide as percentage of allele-specific positive control peptide, fluorescence, conformation-specific monoclonal antibody
From the text: as §2

MHC-II DRB1*15:03 [10] = biological target: T4, MHC-II DRB1*15:03; assay: Cell-free REVEAL class II binding assay; details: signal of test peptide as percentage of allele-specific positive control peptide, fluorescence, conformation-specific monoclonal antibody
From the text: as §2

MHC-II DRB1*03:01 [11] = biological target: T5, MHC-II DRB1*03:01; assay: Cell-free REVEAL class II binding assay; details: signal of test peptide as percentage of allele-specific positive control peptide, fluorescence, conformation-specific monoclonal antibody
From the text: as §2

MHC-II DRB1*07:01 [12] = biological target: T6, MHC-II DRB1*07:01; assay: Cell-free REVEAL class II binding assay; details: signal of test peptide as percentage of allele-specific positive control peptide, fluorescence, conformation-specific monoclonal antibody
From the text: as §2

Sequence | Stability Index (MHC-II DRB1*15:01 [1]) | Stability Index (MHC-II DRB1*11:01 [2]) | Stability Index (MHC-II DRB1*04:01 [3]) | Stability Index (MHC-II DRB1*15:03 [4]) | Stability Index (MHC-II DRB1*03:01 [5]) | Stability Index (MHC-II DRB1*07:01 [6]) | Binding Score (MHC-II DRB1*15:01 [7]) [%] | Binding Score (MHC-II DRB1*11:01 [8]) [%] | Binding Score (MHC-II DRB1*04:01 [9]) [%] | Binding Score (MHC-II DRB1*15:03 [10]) [%] | Binding Score (MHC-II DRB1*03:01 [11]) [%] | Binding Score (MHC-II DRB1*07:01 [12]) [%]
DVRPLYSRRLPKGVK [synthetic wild type FVIII 15 mer peptide, region of ns-SNP R484H] | 67.4 | 3.0 | 0.0 | 2.8 | 0.2 | 0.2 | 56.2 | 16.9 | 0.2 | 2.4 | 0.1 | 0.2
QKTMKVTGVTTQGVK [synthetic wild type FVIII 15 mer peptide, region of ns-SNP M2238V] | 0.5 | 0.0 | 0.5 | 0.0 | 0.0 | 0.0 | 0.8 | 0.1 | 6.6 | 0.0 | 0.0 | 0.0
AVGVSYWKASEGAEY [synthetic wild type FVIII 15 mer peptide] | 1.0 | 0.0 | 0.4 | 0.0 | 0.0 | 0.0 | 17.0 | 0.3 | 2.0 | 0.1 | 0.0 | 0.0
SGYTFKHKMVYEDTL [synthetic wild type FVIII 15 mer peptide] | 1.2 | 2.2 | 0.1 | 0.0 | 0.0 | 0.0 | 1.0 | 14.9 | 1.0 | 0.0 | 1.3 | 0.0
LSTRQNVEGSYDGAY [synthetic wild type FVIII 15 mer peptide, region of ns-SNP D1241E] | 0.0 | 0.0 | 3.2 | 0.0 | 0.0 | 0.0 | 0.0 | 0.2 | 15.2 | 0.0 | 0.0 | 0.0
RSNAWRPQVNNPKEW [synthetic wild type FVIII 15 mer peptide] | 0.5 | 0.0 | 12.4 | 0.0 | 0.0 | 0.0 | 0.4 | 0.1 | 18.2 | 0.0 | 0.0 | 0.0
DIEKTDPWFAHRTPM [synthetic wild type FVIII 15 mer peptide, region of ns-SNP R776G] | 0.2 | 0.2 | 0.4 | 0.0 | 0.0 | 0.0 | 2.6 | 7.3 | 7.6 | 0.1 | 0.0 | 0.0
DGAYAPVLQDFRSLN [synthetic wild type FVIII 15 mer peptide, region of ns-SNP D1241E] | 0.0 | 0.0 | 0.1 | 0.0 | 2.0 | 0.0 | 0.0 | 0.2 | 0.7 | 0.1 | 11.1 | 0.1
YTFKHKMVYEDTLTL [synthetic wild type FVIII 15 mer peptide] | 1.1 | 13.7 | 0.5 | 0.1 | 0.0 | 0.0 | 0.9 | 31.6 | 5.0 | 0.0 | 0.8 | 0.0
KMVYEDTLTLFPFSG [synthetic wild type FVIII 15 mer peptide] | 0.2 | 0.0 | 8.3 | 0.0 | 21.0 | 0.0 | 3.0 | 11.7 | 29.7 | 0.0 | 57.6 | 0.0
IARYIRLHPTHYSIR [synthetic wild type FVIII 15 mer peptide] | 4055.5 | 36.2 | 38.8 | 124.6 | 0.0 | 0.0 | 3379.6 | 150.5 | 61.3 | 103.9 | 1.0 | 0.0
FSSLYISQFIIMYSL [synthetic wild type FVIII 15 mer peptide] | 28.0 | 0.0 | 0.4 | 0.1 | 0.0 | 0.0 | 23.3 | 0.3 | 1.5 | 0.3 | 0.6 | 0.0
